Results as given in ChEMBL document CHEMBL5696442, “Discovery of type II inhibitors of TGFβ-activated kinase 1 (TAK1) and mitogen-activated protein kinase kinase kinase kinase 2 (MAP4K2)” (J Med Chem, 2015).

Assays:
[1] = target: T1, Eukaryotic translation initiation factor 2-alpha kinase 3 (Homo sapiens) (UniProt Q9NZJ5); test: Inhibition of PEK Lys2 labeling site in human Huh-7 cell lysate at 1 uM by KiNativ Profiling analysis relative to control; format: subcellular
T1 sequence (whole entry): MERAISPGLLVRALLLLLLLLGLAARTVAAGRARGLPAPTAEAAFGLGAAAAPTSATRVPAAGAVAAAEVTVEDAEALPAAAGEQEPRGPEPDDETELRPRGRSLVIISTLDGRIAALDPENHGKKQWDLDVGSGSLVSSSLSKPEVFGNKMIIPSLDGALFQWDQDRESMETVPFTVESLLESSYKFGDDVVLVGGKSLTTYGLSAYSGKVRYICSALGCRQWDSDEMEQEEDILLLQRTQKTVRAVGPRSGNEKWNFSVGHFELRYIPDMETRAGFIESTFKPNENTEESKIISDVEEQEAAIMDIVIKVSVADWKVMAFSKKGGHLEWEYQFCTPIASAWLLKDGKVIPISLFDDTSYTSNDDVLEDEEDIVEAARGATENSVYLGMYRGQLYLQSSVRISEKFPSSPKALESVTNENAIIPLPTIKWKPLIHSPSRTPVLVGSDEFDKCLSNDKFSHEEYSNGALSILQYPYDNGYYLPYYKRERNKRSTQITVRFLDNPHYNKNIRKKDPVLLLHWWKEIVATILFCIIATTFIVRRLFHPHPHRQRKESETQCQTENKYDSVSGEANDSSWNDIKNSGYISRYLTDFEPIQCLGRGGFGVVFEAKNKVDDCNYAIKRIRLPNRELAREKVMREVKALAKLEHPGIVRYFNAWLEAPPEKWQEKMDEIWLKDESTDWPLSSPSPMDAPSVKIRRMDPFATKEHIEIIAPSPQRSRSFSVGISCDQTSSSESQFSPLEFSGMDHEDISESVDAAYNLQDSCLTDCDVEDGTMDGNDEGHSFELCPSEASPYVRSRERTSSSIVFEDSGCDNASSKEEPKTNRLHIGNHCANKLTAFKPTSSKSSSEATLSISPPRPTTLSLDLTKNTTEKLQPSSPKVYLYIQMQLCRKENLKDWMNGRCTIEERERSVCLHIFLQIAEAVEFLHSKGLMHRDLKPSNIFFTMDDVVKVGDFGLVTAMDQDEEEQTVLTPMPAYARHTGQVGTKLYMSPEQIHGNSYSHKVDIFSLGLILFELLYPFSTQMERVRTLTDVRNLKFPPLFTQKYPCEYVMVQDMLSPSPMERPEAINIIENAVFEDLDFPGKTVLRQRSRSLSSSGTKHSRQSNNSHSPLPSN

[2] = target: Rho-associated protein kinase 2 (Homo sapiens) (UniProt O75116); test: Inhibition of ROCK2 Lys2 labeling site in human Huh-7 cells at 1 uM by KiNativ Profiling analysis relative to control; format: cell-based
[3] = target: TRAF2 and NCK-interacting protein kinase (Homo sapiens) (UniProt Q9UKE5); test: Inhibition of ZC2/TNIK Lys2 labeling site in human Huh-7 cells at 1 uM by KiNativ Profiling analysis relative to control; format: cell-based
[4] = target: SRSF protein kinase 3 (Homo sapiens) (UniProt Q9UPE1); test: Inhibition of SRPK3 (unknown origin) at 1 uM by Ambit Kinomescan binding assay relative to control
[5] = target: Serine/threonine-protein kinase VRK2 (Homo sapiens) (UniProt Q86Y07); test: Inhibition of VRK2 (unknown origin) at 1 uM by Ambit Kinomescan binding assay relative to control
[6] = target: 1-phosphatidylinositol 3-phosphate 5-kinase (Homo sapiens) (UniProt Q9Y2I7); test: Inhibition of PIP5K3 ATP labeling site in human A-375 cells at 5 uM by KiNativ Profiling analysis relative to control; format: cell-based
[7] = test system: Mast/stem cell growth factor receptor Kit (Homo sapiens), P10721 [V559D,T670I]; test: Inhibition of KIT V559D/T670I mutant (unknown origin) at 1 uM by Ambit Kinomescan binding assay relative to control; values are per cent of control
[8] = target: Ephrin type-A receptor 8 (Homo sapiens) (UniProt P29322); test: Inhibition of EPHA8 (unknown origin) at 10 uM by Ambit Kinomescan binding assay relative to control
[9] = target: T2, Phosphatidylinositol 5-phosphate 4-kinase type-2 gamma (Homo sapiens) (UniProt Q8TBX8); test: Inhibition of PIP5K2C ATP labeling site harbouring VKELPTLKDMDFLNK in human Huh-7 cells at 10 uM by KiNativ Profiling analysis relative to control; format: cell-based
T2 sequence (whole entry): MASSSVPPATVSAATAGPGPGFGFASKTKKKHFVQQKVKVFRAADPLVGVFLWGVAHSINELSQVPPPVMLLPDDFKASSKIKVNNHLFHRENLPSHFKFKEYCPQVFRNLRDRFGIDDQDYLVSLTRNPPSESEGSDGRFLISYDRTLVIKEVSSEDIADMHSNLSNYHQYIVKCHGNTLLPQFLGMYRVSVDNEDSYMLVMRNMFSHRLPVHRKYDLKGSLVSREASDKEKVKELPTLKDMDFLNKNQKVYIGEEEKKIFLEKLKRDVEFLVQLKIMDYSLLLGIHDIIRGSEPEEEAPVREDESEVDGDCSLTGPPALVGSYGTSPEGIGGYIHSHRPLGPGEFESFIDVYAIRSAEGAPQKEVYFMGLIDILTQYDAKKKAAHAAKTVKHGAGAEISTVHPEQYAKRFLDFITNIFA

[10] = target: Tyrosine-protein kinase ABL (Homo sapiens) (UniProt P00519+P42684); test: Inhibition of ABL1/2 ACT labeling site in human Huh-7 cells at 1 uM by KiNativ Profiling analysis relative to control; format: cell-based
[11] = target: T3, Serine/threonine-protein kinase 3 (Homo sapiens) (UniProt Q13188); test: Inhibition of MST2 K1 labeling site in human Huh-7 cells at 1 uM by KiNativ Profiling analysis relative to control; format: cell-based
T3 sequence (whole entry): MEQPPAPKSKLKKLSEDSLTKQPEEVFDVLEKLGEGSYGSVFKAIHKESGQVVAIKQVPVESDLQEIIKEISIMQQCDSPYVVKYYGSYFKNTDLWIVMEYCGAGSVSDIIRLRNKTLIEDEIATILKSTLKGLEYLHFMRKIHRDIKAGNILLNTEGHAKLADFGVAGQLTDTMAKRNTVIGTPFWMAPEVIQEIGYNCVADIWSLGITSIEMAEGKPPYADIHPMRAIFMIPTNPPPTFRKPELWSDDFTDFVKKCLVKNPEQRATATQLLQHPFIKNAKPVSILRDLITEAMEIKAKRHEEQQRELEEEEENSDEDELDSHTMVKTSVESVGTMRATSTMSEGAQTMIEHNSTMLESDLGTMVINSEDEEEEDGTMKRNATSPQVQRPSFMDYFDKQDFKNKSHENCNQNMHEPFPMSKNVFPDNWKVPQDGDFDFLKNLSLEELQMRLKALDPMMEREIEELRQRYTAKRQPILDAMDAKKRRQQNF

Sequence of SRSF protein kinase 3 (Homo sapiens) (Q9UPE1 whole entry): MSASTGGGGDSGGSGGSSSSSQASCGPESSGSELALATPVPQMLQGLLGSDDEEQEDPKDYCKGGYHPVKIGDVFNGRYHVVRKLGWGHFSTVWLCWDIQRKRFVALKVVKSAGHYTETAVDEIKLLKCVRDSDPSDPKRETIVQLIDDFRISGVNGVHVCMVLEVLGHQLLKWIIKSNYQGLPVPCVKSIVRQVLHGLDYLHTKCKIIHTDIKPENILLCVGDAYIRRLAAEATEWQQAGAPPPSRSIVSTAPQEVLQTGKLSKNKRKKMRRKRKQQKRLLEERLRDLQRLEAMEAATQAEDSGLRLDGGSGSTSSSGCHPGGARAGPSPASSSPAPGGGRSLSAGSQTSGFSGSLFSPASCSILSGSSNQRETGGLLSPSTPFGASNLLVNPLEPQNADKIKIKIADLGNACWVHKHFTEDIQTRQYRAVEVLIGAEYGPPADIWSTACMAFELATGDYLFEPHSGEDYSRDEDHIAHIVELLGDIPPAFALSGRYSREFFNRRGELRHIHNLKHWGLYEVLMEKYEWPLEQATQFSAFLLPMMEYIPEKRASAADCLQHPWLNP
Sequence of Rho-associated protein kinase 2 (Homo sapiens) (O75116 whole entry, looked up): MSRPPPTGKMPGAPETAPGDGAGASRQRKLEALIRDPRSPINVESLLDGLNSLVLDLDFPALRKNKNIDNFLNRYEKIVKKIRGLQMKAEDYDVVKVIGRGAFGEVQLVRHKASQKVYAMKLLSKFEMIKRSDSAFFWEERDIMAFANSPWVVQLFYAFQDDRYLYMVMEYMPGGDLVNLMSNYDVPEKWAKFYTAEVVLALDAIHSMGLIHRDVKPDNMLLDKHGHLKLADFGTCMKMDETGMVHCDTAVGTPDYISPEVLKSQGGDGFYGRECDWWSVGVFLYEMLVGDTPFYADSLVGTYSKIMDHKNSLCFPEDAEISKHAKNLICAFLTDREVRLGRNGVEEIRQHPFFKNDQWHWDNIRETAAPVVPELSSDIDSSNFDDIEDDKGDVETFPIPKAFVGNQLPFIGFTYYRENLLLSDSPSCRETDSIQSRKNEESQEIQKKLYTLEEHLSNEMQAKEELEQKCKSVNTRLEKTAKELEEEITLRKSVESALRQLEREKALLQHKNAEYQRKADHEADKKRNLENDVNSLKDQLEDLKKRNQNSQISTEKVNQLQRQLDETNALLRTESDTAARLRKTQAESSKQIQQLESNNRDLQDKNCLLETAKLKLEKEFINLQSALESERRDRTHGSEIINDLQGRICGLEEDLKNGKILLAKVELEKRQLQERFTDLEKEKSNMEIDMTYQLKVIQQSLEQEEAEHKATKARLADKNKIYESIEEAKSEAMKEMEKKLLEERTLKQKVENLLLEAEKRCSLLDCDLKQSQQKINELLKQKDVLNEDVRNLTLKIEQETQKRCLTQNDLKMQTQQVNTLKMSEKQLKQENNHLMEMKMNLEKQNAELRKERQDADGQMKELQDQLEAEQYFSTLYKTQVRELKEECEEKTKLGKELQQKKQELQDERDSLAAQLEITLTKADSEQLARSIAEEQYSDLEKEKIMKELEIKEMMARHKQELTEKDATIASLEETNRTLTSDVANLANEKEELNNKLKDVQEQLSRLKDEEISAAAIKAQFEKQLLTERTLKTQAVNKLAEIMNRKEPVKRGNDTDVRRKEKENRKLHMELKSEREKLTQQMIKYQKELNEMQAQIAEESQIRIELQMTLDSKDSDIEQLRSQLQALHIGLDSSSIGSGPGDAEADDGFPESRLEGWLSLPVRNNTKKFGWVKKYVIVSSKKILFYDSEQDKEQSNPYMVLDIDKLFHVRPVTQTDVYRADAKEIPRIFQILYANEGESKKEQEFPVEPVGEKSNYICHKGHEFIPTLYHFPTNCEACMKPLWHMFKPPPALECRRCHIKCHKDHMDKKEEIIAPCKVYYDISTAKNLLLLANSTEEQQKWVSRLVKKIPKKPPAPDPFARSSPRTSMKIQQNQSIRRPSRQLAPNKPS
Sequence of Serine/threonine-protein kinase VRK2 (Homo sapiens) (Q86Y07 whole entry): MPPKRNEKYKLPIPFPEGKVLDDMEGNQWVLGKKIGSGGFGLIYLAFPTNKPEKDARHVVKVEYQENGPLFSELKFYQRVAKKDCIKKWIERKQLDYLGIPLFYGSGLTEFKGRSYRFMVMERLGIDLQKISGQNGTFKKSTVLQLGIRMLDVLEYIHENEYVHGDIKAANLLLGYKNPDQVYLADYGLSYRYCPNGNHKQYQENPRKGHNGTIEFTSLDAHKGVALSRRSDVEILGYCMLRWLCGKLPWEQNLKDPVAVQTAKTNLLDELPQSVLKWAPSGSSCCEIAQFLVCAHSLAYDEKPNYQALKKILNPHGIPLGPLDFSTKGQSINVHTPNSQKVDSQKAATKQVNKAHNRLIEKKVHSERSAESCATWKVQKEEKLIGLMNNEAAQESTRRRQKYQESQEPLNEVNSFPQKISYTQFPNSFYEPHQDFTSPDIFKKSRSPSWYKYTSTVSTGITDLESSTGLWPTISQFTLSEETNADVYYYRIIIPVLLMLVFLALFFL
Sequence of TRAF2 and NCK-interacting protein kinase (Homo sapiens) (Q9UKE5 whole entry, looked up): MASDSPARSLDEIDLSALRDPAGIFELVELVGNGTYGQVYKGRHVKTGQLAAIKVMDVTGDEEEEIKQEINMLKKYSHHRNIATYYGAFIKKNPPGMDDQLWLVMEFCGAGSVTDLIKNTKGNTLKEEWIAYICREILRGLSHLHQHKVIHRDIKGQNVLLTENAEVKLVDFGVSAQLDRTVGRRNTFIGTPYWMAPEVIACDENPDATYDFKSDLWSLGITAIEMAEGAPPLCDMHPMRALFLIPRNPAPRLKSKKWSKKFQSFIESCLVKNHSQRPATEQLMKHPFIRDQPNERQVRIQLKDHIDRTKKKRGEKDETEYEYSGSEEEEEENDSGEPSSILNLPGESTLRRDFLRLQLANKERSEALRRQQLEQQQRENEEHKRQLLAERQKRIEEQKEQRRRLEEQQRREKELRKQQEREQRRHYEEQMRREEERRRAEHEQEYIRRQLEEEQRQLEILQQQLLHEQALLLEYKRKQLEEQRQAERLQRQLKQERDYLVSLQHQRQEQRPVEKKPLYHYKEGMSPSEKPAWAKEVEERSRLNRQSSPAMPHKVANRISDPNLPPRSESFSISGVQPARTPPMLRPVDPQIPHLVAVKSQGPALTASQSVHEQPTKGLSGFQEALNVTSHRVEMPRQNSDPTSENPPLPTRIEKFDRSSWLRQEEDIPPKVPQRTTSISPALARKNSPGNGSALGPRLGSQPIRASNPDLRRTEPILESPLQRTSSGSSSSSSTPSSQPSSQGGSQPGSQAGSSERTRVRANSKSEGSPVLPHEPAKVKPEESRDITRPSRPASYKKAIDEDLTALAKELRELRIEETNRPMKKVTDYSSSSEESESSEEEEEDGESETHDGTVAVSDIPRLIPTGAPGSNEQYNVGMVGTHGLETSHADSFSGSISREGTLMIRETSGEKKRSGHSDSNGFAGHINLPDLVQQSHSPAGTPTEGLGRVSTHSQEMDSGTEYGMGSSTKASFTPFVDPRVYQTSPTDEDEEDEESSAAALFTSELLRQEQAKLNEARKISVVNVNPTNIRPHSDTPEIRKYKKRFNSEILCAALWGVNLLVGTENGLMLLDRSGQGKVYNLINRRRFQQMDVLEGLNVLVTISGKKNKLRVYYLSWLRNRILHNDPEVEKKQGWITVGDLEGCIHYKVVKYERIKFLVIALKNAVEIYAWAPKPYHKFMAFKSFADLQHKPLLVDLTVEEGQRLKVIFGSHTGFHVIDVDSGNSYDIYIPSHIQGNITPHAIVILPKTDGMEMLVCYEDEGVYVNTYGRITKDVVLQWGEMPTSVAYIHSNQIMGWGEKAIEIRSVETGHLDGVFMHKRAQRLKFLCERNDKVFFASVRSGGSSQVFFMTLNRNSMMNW
Sequence of Mast/stem cell growth factor receptor Kit (Homo sapiens), P10721 [V559D,T670I] (P10721 whole entry V559D/T670I): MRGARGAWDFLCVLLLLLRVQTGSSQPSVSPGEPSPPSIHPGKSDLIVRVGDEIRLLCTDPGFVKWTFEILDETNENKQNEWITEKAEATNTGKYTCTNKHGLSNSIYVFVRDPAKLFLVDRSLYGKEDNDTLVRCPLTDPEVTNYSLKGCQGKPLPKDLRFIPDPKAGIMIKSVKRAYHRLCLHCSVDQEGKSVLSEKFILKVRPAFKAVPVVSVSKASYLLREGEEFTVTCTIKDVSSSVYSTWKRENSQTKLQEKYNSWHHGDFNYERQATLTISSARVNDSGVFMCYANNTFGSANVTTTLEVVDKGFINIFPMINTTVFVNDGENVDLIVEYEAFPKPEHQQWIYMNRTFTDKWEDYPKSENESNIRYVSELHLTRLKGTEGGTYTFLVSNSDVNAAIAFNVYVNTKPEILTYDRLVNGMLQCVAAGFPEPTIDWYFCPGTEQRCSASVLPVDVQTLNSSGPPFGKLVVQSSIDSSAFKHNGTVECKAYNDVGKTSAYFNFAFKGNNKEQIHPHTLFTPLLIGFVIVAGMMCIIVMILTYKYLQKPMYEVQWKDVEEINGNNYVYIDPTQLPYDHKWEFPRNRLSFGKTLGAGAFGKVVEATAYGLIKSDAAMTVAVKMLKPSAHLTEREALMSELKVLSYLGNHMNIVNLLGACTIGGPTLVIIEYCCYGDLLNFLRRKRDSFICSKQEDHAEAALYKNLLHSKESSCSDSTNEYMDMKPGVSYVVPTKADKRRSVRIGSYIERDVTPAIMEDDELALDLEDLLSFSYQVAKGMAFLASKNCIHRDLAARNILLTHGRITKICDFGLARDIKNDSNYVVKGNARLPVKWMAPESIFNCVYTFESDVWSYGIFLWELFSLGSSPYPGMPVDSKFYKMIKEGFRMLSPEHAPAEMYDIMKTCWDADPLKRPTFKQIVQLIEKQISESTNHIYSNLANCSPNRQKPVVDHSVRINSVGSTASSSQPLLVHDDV

Compound `CNc1cc(Oc2cc(C(=O)Nc3cc(N4CCN(C)CC4)cc(C(F)(F)F)c3)ccc2C)ncn1` has an inhibition [1] of -6.7%, an inhibition [2] of -1% and an inhibition [3] of 9.7%.

For `CCN1CCN(Cc2ccc(NC(=O)c3ccc(C)c(/C=C/c4cnc5[nH]ccc5c4OC)c3)cc2C(F)(F)F)CC1`, the inhibition [4] was 37%, the inhibition [5] was 100% and the inhibition [6] was 7.6%. It also gave a residual activity [7] of 4.9%.

For `CCN1CCN(Cc2ccc(NC(=O)c3ccc(C)c(Oc4ccnc5[nH]ccc45)c3)cc2C(F)(F)F)CC1`, the inhibition [8] was 0.1%, the inhibition [9] was 11.6% and the inhibition [10] was 44.3%. The inhibition [11] was 16.2%.
